Reference: patent publication US12251363B2, “Compositions to enhance a non-surgical medical treatment” (Anti-Plasmin Technologies, LLC, priority 2017, dated 2025)

Key:
[1] = HPLC study to detect any binding interaction of tranexamic acid with hyaluronic acid polymer (ERACLEA product); type: physicochemical
Protocol: First a skin care product from ERACLEA® Skin Care containing 1% (w/v) hyaluronic acid polymer and preservatives was tested. […] The analysis was carried out with fresh sample preparations being mixed and immediately injected into the HPLC system for analysis as well as sample preparations that were mixed and allowed to stand for a 20 minute time period prior to injection.
(§1) Similar to the above-mentioned study, the JUVEDERM® analysis was carried out with fresh sample preparations being immediately injected for analysis as well as sample preparations that were allowed to stand for a 20 minute time period prior to injection.
The sample preparation was prepared as follows: 10 mg of hyaluronic acid polymer (Source: ERACLEA®, pure hydration) was weighed in 2.5 mL of auto sampler vial and diluted to 1000 μt volume by adding an aqueous solution of 60:40 ratio, by volume, distilled water/acetonitrile and used as a standard stock solution.
The HPLC was conducted with a flow rate of 1 mL/min, a sample concentration of 10 mg/mL, and an injection volume of 10 μt, a wave length of 205 nm and a solvent system of 40:60 ratio, by volume, acetonitrile/distilled water.

[2] = HPLC study of interaction of tranexamic acid with hyaluronic acid dermal filler (JUVEDERM); type: physicochemical; conditions: freshly prepared 3% (w/v) tranexamic acid in filler; injected immediately vs after standing 20 min
Protocol: as §1
The sample preparation was prepared as follows: 13 mg of filler (Source: JUVEDERM® Vollere XC) was weighed in a 2.5 mL vial and diluted to 1000 μt volume by adding an aqueous solution of 60:40 ratio, by volume, distilled water/acetonitrile.

[3] = test system: patients receiving hyaluronic acid dermal filler; test: Non-surgical clinical use: tranexamic acid solution before and after injection of hyaluronic acid dermal filler, 318 patients; type: in vivo, human; conditions: 3% (w/v) tranexamic acid solution before and after filler injection
Source text: Three patients of the 318 reported instances of bruising or swelling.

[4] = oral administration; cited from earlier work
[5] = test system: patients undergoing dermal filler procedures; test: Bruising study: tranexamic acid solutions applied before and after dermal filler procedures, 48-hour observation; type: in vivo, human
[6] = 20% (w/v) tranexamic acid solution vs without
[7] = 20% (w/v) tranexamic acid solution, when bruising occurred

- interaction between tranexamic acid and hyaluronic acid polymer when mixed in solution ([1]; 3% (w/v) tranexamic acid in solution containing 1% (w/v) hyaluronic acid polymer, mixed several weeks prior to HPLC): no interaction
- interaction between tranexamic acid and hyaluronic acid polymer ([1]; freshly prepared 3% (w/v) tranexamic acid in hyaluronic acid polymer, injected immediately vs after standing 20 min): no interaction
- interaction between tranexamic acid and the hyaluronic acid in the ERACLEA product ([1]; left in contact for several weeks (0.5% and 3% (w/v) tranexamic acid)): no interaction
- interaction between tranexamic acid and JUVEDERM filler [2]: no interaction
SMILES: NC[C@H]1CC[C@H](C(=O)O)CC1 [tranexamic acid]
- patients reported instances of bruising or swelling (count) [3]: Three
- patients reported instances of bruising and swelling ([3]; 318 patients, about 1 year): Less than 1%
- fraction of the TA ingested that does not enter the blood [4]: about half
- mild to no bruising combined, patients ([5]; 20% (w/v) tranexamic acid solution): 82%
- more patients experienced no bruising vs filler labeling ([5]; 20% (w/v) tranexamic acid solution vs labeling of JUVEDERM VOLLURE XC and VOLBELLA XC): about 28%
- improvement in bruising incidence ([5]; 20% (w/v) tranexamic acid solution vs other series, 48-hour observation): three-fold
- improvement in mild bruising [5, 6]: 80%
- improvement in mild to no bruising combined [5, 6]: 58%
- improvement in severe bruising [5, 6]: 100%
- patients experienced no bruising ([5]; 20% (w/v) tranexamic acid solution, 48-hour observation): Approximately 45%
- patients bruised severely [5, 7]: no patients
- patients only bruised mildly [5, 7]: 67%
- patients experienced no bruising ([5]; other series of patients (3%, 5%, 10% (w/v), and 3% plus home use for two days), 48-hour observation): about 15%
